Assay results published in ChEMBL document CHEMBL1201862, “PubChem BioAssay data set” (2004).
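96-well plates; 48 h exposure; 5 concentrations. Endpoints by linear interpolation between flanking doses. Not reached: highest tested concentration assigned. Abbreviation: GI50, concentration required for 50% inhibition of growth.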 Activity calls are given as the source filed them. No stated cut-off is given here; in the data, active = GI50 up to about 1.1 µM and inactive = higher.

Key:
Assay in all cases: NCI anticancer screen, dose series, 48 h
HT-29 = test system: HT-29
K562 = test system: K562
MCF7 = test system: MCF7
OVCAR-5 = test system: OVCAR-5
HCT-116 = test system: HCT-116
NCI/ADR-RES = test system: NCI/ADR-RES
NCI-H226 = test system: NCI-H226
M14 = test system: M14
MOLT-4 = test system: MOLT-4
Hs-578T = test system: Hs-578T
CAKI-1 = test system: CAKI-1
EKVX = test system: EKVX
UACC-62 = test system: UACC-62
SNB-19 = test system: SNB-19
BT-549 = test system: BT-549
KM12 = test system: KM12
SK-MEL-2 = test system: SK-MEL-2
DU-145 = test system: DU-145
TK-10 = test system: TK-10

Measured: GI50

Nc1c(C(=O)O)c2ccc([N+](=O)[O-])cc2c(=O)n1-c1nc2ccccc2s1
inactive: HT-29 > 100 µM | K562 > 100 µM | MCF7 > 100 µM | OVCAR-5 > 100 µM | HCT-116 > 100 µM | NCI/ADR-RES > 100 µM | NCI-H226 > 100 µM | M14 > 100 µM | MOLT-4 > 100 µM | Hs-578T > 100 µM | CAKI-1 > 100 µM | EKVX > 100 µM | UACC-62 > 100 µM | SNB-19 > 100 µM | BT-549 > 100 µM | KM12 > 100 µM | SK-MEL-2 > 100 µM | DU-145 > 100 µM

CCOC(=O)Oc1cc2ccsc2c2c1c1ccccc1n2C(=O)OCC
inactive: HT-29 69.5 µM | K562 > 100 µM | MCF7 59 µM | OVCAR-5 > 100 µM | HCT-116 54.6 µM | NCI/ADR-RES 38 µM | NCI-H226 42.2 µM | TK-10 50 µM | M14 31.3 µM | MOLT-4 > 100 µM | Hs-578T 36.4 µM | CAKI-1 58.2 µM | EKVX 60.7 µM | UACC-62 34.4 µM | BT-549 59 µM | KM12 49.9 µM | SK-MEL-2 48.3 µM | DU-145 32.8 µM

Cc1ccc2nc3[nH]nc(N)c3nc2c1
inactive: HT-29 > 100 µM | MCF7 > 100 µM | OVCAR-5 > 100 µM | HCT-116 > 100 µM | NCI/ADR-RES > 100 µM | NCI-H226 45.3 µM | TK-10 28 µM | M14 > 100 µM | MOLT-4 68.5 µM | Hs-578T 89.3 µM | CAKI-1 42.6 µM | EKVX 20.9 µM | UACC-62 44.2 µM | SNB-19 > 100 µM | BT-549 67 µM | KM12 54.6 µM | SK-MEL-2 > 100 µM | DU-145 > 100 µM

CCOC(=O)C1=CC(C)(C(=O)OCC)Nc2c(nc(SC)[nH]c2=O)N1 (configuration not stated)
inactive: HT-29 > 10 µM | K562 > 10 µM | MCF7 > 10 µM | OVCAR-5 > 10 µM | HCT-116 > 10 µM | NCI/ADR-RES > 10 µM | NCI-H226 > 10 µM | TK-10 > 10 µM | M14 > 10 µM | MOLT-4 > 10 µM | Hs-578T > 10 µM | CAKI-1 > 10 µM | EKVX > 10 µM | SNB-19 > 10 µM | BT-549 > 10 µM | KM12 > 10 µM | SK-MEL-2 > 10 µM | DU-145 > 10 µM

COc1ccc2c(c1OC)C(=O)O[C@@H]2[C@H]1c2c(cc3c(c2OC)OCO3)CCN1C [NOSCAPINE]
inactive: HT-29 40 µM | K562 33 µM | MCF7 42.3 µM | OVCAR-5 > 100 µM | HCT-116 50.5 µM | NCI/ADR-RES 43.8 µM | NCI-H226 > 100 µM | M14 39.2 µM | MOLT-4 23.5 µM | Hs-578T 21.1 µM | CAKI-1 63 µM | UACC-62 56.9 µM | SNB-19 80.5 µM | BT-549 45.7 µM | KM12 45.8 µM | SK-MEL-2 34.1 µM | DU-145 > 100 µM

CN1CCN(c2ccncc2S(=O)(=O)N2CCN(C)CC2)CC1
inactive: HT-29 > 100 µM | K562 > 100 µM | MCF7 > 100 µM | OVCAR-5 > 100 µM | HCT-116 > 100 µM | NCI/ADR-RES > 100 µM | NCI-H226 > 100 µM | TK-10 > 100 µM | M14 > 100 µM | Hs-578T > 100 µM | CAKI-1 > 100 µM | EKVX > 100 µM | UACC-62 > 100 µM | SNB-19 > 100 µM | BT-549 > 100 µM | KM12 > 100 µM | SK-MEL-2 > 100 µM | DU-145 > 100 µM

O=C1Cc2c([nH]c3ccc(Br)cc23)-c2cc(O)c(O)cc2N1
inactive: K562 > 100 µM | MCF7 > 100 µM | OVCAR-5 > 100 µM | NCI/ADR-RES > 100 µM | NCI-H226 > 100 µM | TK-10 > 100 µM | M14 > 100 µM | MOLT-4 71.8 µM | Hs-578T > 100 µM | CAKI-1 > 100 µM | EKVX > 100 µM | UACC-62 > 100 µM | SNB-19 > 100 µM | BT-549 > 100 µM | KM12 > 100 µM | SK-MEL-2 > 100 µM | DU-145 > 100 µM

O=C(NCCN1CCCCC1)c1ccc(I)cc1
inactive: HT-29 39.5 µM | K562 > 100 µM | MCF7 > 100 µM | OVCAR-5 > 100 µM | HCT-116 > 100 µM | NCI/ADR-RES > 100 µM | NCI-H226 > 100 µM | TK-10 > 100 µM | M14 > 100 µM | MOLT-4 > 100 µM | Hs-578T 61 µM | CAKI-1 > 100 µM | EKVX > 100 µM | SNB-19 > 100 µM | BT-549 > 100 µM | KM12 > 100 µM | SK-MEL-2 > 100 µM | DU-145 69.3 µM
